Test results published in patent publication US12459894B2, “Orally active melanocortin receptor-4 compounds” (Palatin Technologies, Inc., priority 2018, dated 2025).
Marks after values point to notes of the source that are not given here.

Assays:
MC4r [1] = target: T1, MC4r (Homo sapiens, UniProt P32245); assay: Competitive inhibition binding assay, MC4r; parameters: expressed in transfected cells; host or cells: HEK-293 (membrane homogenates); conditions: binding studies
Method: A competitive inhibition binding assay is performed using membrane homogenates prepared from HEK-293 cells that express recombinant hMC1ra, hMC4r, hMC3r, or hMC5r, and from B16-F10 mouse melanoma cells (containing endogenous MC1r). In the examples that follow, all values are for human recombinant receptors unless otherwise noted. Assays are performed in 96 well GF/B Millipore multiscreen filtration plates (MAFB NOB10) pre-coated with 0.5% bovine serum albumin (Fraction V). […] After incubation for 60 to 90 minutes at 37° C., the assay mixture is filtered and the membranes washed three times with ice-cold buffer. Filters are dried and counted in a gamma counter for bound radioactivity.
Maximal specific binding (100%) is defined as the difference in radioactivity (cpm) bound to cell membranes in the absence and presence of 1 μM NDP-α-MSH. […] Each assay is conducted in duplicate or triplicate and the actual mean values are described, with results less than 0% reported as 0%. Ki values for test compounds are determined using Graph-Pad Prism® curve-fitting software.
Competitive Binding Assay Using Eu-NDP-α-MSH. […] The plates were incubated on a shaker for 15 minutes and read at 340 nm excitation and 615 nm emission wavelengths. […] Ki values were determined by curve-fitting with Graph-Pad Prism® software using a one-site fixed-slope competition binding model.

MC4r [2] = target: T1, MC4r; assay: Functional cAMP study in human MC4r expression system approximating maximal physiologic receptor densities; assay type: cell-based; parameters: host or cells: TREx-293 transfected with pcDNA4/TO/MC4R
Method: Assay for Agonist Activity. Accumulation of intracellular cAMP was examined as a measure of the ability of the peptides of the present invention to elicit a functional response in HEK-293 cells that express MC4-R. Confluent HEK-293 cells that express recombinant hMC4-R were detached from culture plates by incubation in enzyme-free cell dissociation buffer. Dispersed cells were suspended in Hanks' Balanced Salt Solution containing 10 mM HEPES (pH 7.5), 1 mM MgCl2, 1 mM glutamine, 0.5% albumin and 0.3 mM 3-isobutyl-1-methyl-xanthine (IBMX), a phosphodiesterase inhibitor. The cells were plated in 96-well plates at a density of 0.5×10^5 cells per well and pre-incubated for 10 minutes. Cells were exposed for 15 minutes at 37° C. to peptides of the present invention dissolved in DMSO (final DMSO concentration of 1%) at a concentration range of 0.05-5000 nM in a total assay volume of 200 μL. NDP-α-MSH was used as the reference agonist. cAMP levels were determined by an HTRF® cAMP cell-based assay system from Cisbio Bioassays utilizing cryptate-labeled anti-cAMP and d2-labeled cAMP, with plates read on a Perkin-Elmer Victor plate reader at […]. Data analysis was performed by nonlinear regression analysis with Graph-Pad Prism® software. The maximum efficacies of the test peptides of the present invention were compared to that achieved by the reference melanocortin agonist NDP-αMSH. […]

C57BL/6 male DIO mice = assay: Body weight and food intake in vivo study in diet induced obese (DIO) mice; parameters: species or system mouse; conditions: for Body Weight Change (%) Mean / Food Intake - 24 Hours (g) Mean: 1 mg/kg subcutaneous twice daily
Method: Compound 7.1 was assessed in a body weight and food intake in vivo study in diet induced obese (DIO) mice. C57BL/6 male DIO mice were utilized, that were 17 weeks of age on arrival. Animals were pre-conditioned on a high-fat diet for 11 weeks by Jackson Labs. […] Animals were single housed within a limited access rodent facility, and provided ad libitum with a commercial rodent diet and free access to drinking water. Animals were randomized into five groups, a vehicle group, three dose levels of compound 7.1 (3 mg/kg, 10 mg/kg and 30 mg/kg), and Peptide A, a positive control cyclic peptide of the formula Ac-Arg-cyclo(Om-Asn-D-Phe-Arg-Trp-Glu)-NH2. Following three days of sham dosing, animals were dosed for three days, with vehicle or Compound 7.1 dosed orally once daily at within one hour of lights out in the AM, and Peptide A dosed by subcutaneous injection twice daily within one hour before lights out and six hours after lights out. Body weights were measured one hour prior to lights out, and feed weights were measured both one hour prior to lights out and six hours post lights out.
• *p<0.05 vs. sham (vehicle control) using two-way ANOVA followed by Dunnett's post-test. • **p<0.01 vs sham (vehicle control) using two-way ANOVA followed by Dunnett's post-test.

T1 sequence (P32245 whole entry): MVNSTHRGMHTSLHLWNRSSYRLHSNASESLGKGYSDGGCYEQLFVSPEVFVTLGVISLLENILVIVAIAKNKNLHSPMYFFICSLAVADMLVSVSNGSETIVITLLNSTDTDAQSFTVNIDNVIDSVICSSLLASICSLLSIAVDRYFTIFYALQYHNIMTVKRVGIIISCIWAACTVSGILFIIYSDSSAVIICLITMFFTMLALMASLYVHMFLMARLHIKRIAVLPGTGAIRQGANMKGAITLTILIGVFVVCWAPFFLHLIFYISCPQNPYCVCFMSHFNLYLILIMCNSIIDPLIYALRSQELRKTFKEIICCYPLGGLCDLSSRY

| Ki (MC4r [1]) [nM] | EC50 (MC4r [2]) [nM] | Emax (MC4r [2]; read-out: relative efficacy, compared to NDP-α-MSH) [%] | Compound | Body Weight Change (%) Mean (C57BL/6 male DIO mice; Day 0) [%] | Food Intake - 24 Hours (g) Mean (C57BL/6 male DIO mice; Day 0, 24 hours post lights out) | Body Weight Change (%) Mean (C57BL/6 male DIO mice; Day 1) | Food Intake - 24 Hours (g) Mean (C57BL/6 male DIO mice; Day 1, 24 hours post lights out) | Body Weight Change (%) Mean (C57BL/6 male DIO mice; Day 2) | Food Intake - 24 Hours (g) Mean (C57BL/6 male DIO mice; Day 2, 24 hours post lights out) | Body Weight Change (%) Mean (C57BL/6 male DIO mice; Day 3) | feed intake (C57BL/6 male DIO mice; 1 mg/kg, 24 hours post lights out, entirety of the study, vs sham) | body weight (C57BL/6 male DIO mice; two times daily 1 mg/kg, throughout the study) |
| --- | --- | --- | --- | --- | --- | --- | --- | --- | --- | --- | --- | --- |
| 5 | 5 | 19 | CNC(C)(C)C(=O)N[C@H](Cc1ccc(Cl)cc1)C(=O)N1CCN(N(CC(C)C)C2CCN(C(C)=O)CC2)CC1 [Compound 7.9, N-[(1R)-2-[4-[(1-acetyl-4-piperidyl)-isobutyl-amino]piperazin-1-yl]-1-[(4-chlorophenyl)methyl]-2-oxo-ethyl]-2-methyl-2-(methylamino)propanamide] | – | – | – | – | – | – | – | – | – |
| – | – | – | Ac-Arg-cyclo(Om-Asn-D-Phe-Arg-Trp-Glu)-NH2 [Peptide A, reference compound] | 0 | 0.99** g | −5.69** % | 1.10** g | −8.37** % | 1.67** g | −8.78** % | significantly inhibited feed intake | decreased animal body weights |
